Measurements: the NIST ThermoML archive (doi:10.1016/j.tca.2014.07.022)

How the values were obtained:
[1] = 100 kPa, Liquid; for viscosity: Concentric cylinders viscometry; for mass density: Vibrating tube method
[2] = xn = mol fraction of the nth substance listed; settings: 100 kPa, Liquid; for viscosity: Concentric cylinders viscometry; for mass density: Vibrating tube method

CC(=O)CC(C)C [4-methylpentan-2-one]
[1]
Settings | mass density [kg/m3] | viscosity [mPa·s]
293.15 K | 800.8 | 0.588
298.15 K | 796.1 | 0.554
303.15 K | 791.6 | 0.523
308.15 K | 786.9 | 0.493
313.15 K | 782.3 | 0.463
318.15 K | 777.6 | 0.437
323.15 K | 773 | 0.41

CC(=O)CC(C)C [4-methylpentan-2-one] + CCCC(C)O
[2], x1 = 1
Settings | mass density [kg/m3] | viscosity [mPa·s]
293.15 K | 800.8 | 0.588
298.15 K | 796.1 | 0.554
303.15 K | 791.6 | 0.523
308.15 K | 786.9 | 0.493
313.15 K | 782.3 | 0.463
318.15 K | 777.6 | 0.437
323.15 K | 773 | 0.41

CCC(C)O (stereo not drawn) [butan-2-ol]
[1]
Settings | mass density [kg/m3] | viscosity [mPa·s]
293.15 K | 806.7 | 3.67
298.15 K | 802.7 | 3.04
303.15 K | 798.4 | 2.54
308.15 K | 794.1 | 2.128
313.15 K | 789.8 | 1.805
318.15 K | 785.2 | 1.538
323.15 K | 780.6 | 1.325

CCC(C)O (stereo not drawn) [butan-2-ol] + CC(=O)CC(C)C
[2], x2 = 0
Settings | mass density [kg/m3] | viscosity [mPa·s]
293.15 K | 806.7 | 3.67
298.15 K | 802.7 | 3.04
303.15 K | 798.4 | 2.54
308.15 K | 794.1 | 2.128
313.15 K | 789.8 | 1.805
318.15 K | 785.2 | 1.538
323.15 K | 780.6 | 1.325

CCCC(C)O (stereo not drawn) [pentan-2-ol]
[1]
Settings | mass density [kg/m3] | viscosity [mPa·s]
293.15 K | 809.3 | 3.974
298.15 K | 805.3 | 3.277
303.15 K | 801.2 | 2.717
308.15 K | 797 | 2.282
313.15 K | 792.7 | 1.931
318.15 K | 788.4 | 1.647
323.15 K | 784 | 1.419

CC(C)O [propan-2-ol]
[1]
Settings | mass density [kg/m3] | viscosity [mPa·s]
293.15 K | 785.4 | 2.417
298.15 K | 781.1 | 2.083
303.15 K | 776.8 | 1.8
308.15 K | 772.4 | 1.561
313.15 K | 768 | 1.359
318.15 K | 763.4 | 1.189
323.15 K | 758.8 | 1.047

CC(C)O [propan-2-ol] + CC(=O)CC(C)C
[2], x2 = 0
Settings | mass density [kg/m3] | viscosity [mPa·s]
293.15 K | 785.4 | 2.417
298.15 K | 781.1 | 2.083
303.15 K | 776.8 | 1.8
308.15 K | 772.4 | 1.561
313.15 K | 768 | 1.359
318.15 K | 763.4 | 1.189
323.15 K | 758.8 | 1.047
